ChEMBL document CHEMBL1147425, “Structure-activity relationships of non-imidazole H(3) receptor ligands. Part 3: 5-Substituted 3-phenyl-1,2,4-oxadiazoles as potent antagonists” (Bioorg Med Chem Lett, 2004)

Tests used:
Histamine H3 receptor [1] = biological target: Histamine H3 receptor (Homo sapiens, UniProt Q9Y5N1); test: Binding affinity for human histamine H3 receptor on human colon cells; format: cell-based
Histamine H3 receptor [2] = biological target: Histamine H3 receptor (Rattus norvegicus, UniProt Q9QYN8); test: Binding affinity for rat histamine H3 receptor on rat cortical cells
Chain of Histamine H3 receptor (Rattus norvegicus, UniProt Q9QYN8) (Q9QYN8 whole entry): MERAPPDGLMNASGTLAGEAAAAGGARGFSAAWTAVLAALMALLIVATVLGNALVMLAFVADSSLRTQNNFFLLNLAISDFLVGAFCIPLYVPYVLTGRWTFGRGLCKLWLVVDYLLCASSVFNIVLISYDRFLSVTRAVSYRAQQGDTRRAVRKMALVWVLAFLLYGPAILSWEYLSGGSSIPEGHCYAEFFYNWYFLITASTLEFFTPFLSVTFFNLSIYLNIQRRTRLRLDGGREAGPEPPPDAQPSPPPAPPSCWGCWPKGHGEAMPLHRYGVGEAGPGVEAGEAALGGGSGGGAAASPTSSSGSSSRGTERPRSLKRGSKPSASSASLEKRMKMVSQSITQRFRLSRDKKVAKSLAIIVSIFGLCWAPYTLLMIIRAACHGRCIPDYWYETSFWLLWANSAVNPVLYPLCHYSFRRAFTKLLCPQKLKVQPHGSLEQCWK

Chain of Histamine H3 receptor (Homo sapiens, UniProt Q9Y5N1) (Q9Y5N1 whole entry): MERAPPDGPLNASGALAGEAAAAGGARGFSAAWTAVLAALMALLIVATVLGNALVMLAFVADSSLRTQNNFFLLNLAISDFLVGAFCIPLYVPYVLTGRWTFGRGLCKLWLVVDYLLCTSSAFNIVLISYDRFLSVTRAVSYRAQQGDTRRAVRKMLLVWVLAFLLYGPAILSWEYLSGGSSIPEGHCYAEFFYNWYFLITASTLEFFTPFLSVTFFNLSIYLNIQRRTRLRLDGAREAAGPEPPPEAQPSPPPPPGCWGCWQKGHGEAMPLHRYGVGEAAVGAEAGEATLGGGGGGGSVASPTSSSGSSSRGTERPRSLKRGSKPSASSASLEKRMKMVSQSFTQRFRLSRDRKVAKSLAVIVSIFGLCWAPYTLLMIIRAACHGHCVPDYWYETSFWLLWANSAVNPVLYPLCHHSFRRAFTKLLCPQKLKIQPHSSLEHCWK

SMILES	Ki (Histamine H3 receptor [1]) [nM]	Ki (Histamine H3 receptor [2]) [nM]
C[C@@H](NC(=O)c1ccco1)C(=O)N1CCCN(CCCOc2ccc(-c3noc(-c4ccco4)n3)c(F)c2)CC1	170	5
C[C@@H](NC(=O)c1ccco1)C(=O)N1CCCN(CCCOc2ccc(-c3noc(-c4cccnc4)n3)c(F)c2)CC1	190	6.9
CC(C)CCC(=O)N[C@H](C)C(=O)N1CCCN(CCCOc2ccc(-c3noc(CC4CCCC4)n3)c(F)c2)CC1	23	2.8
C[C@@H](N)C(=O)N1CCN(CCCOc2ccc(C(=O)C3CC3)cc2)CC1	760	–
C[C@@H](NC(=O)c1ccco1)C(=O)N1CCCN(CCCOc2ccc(-c3noc(-c4ccccc4)n3)c(F)c2)CC1	8.6	4.1
C[C@@H](NC(=O)c1ccco1)C(=O)N1CCN(CCCOc2ccc(C(=O)C3CC3)c(F)c2)CC1	43	1.3
C[C@@H](NC(=O)c1cccs1)C(=O)N1CCN(CCCOc2ccc(-c3noc(-c4ccccc4)n3)c(F)c2)CC1	40	–
C[C@@H](NC(=O)CCN1CCOCC1)C(=O)N1CCN(CCCOc2ccc(-c3noc(CC4CCCC4)n3)c(F)c2)CC1	37	1.1
C[C@@H](NC(=O)c1ccco1)C(=O)N1CCCN(CCCOc2ccc(-c3noc(C4CCCCC4)n3)c(F)c2)CC1	19	2.4
C[C@@H](NC(=O)c1ccco1)C(=O)N1CCCN(CCCOc2ccc(-c3noc(Cc4ccccc4)n3)c(F)c2)CC1	40	1.6
C[C@@H](NC(=O)CC1CCCC1)C(=O)N1CCN(CCCOc2ccc(-c3noc(-c4ccccc4)n3)c(F)c2)CC1	130	21
CC(C)C(=O)N[C@H](C)C(=O)N1CCN(CCCOc2ccc(-c3noc(-c4ccccc4)n3)c(F)c2)CC1	110	14
C[C@@H](NC(=O)c1ccco1)C(=O)N1CCCN(CCCOc2ccc(-c3noc(C(C)(C)C)n3)c(F)c2)CC1	85	4.1
C[C@@H](NC(=O)CN1CCOCC1)C(=O)N1CCN(CCCOc2ccc(-c3noc(-c4ccccc4)n3)c(F)c2)CC1	92	8.2
CC(C)Cc1nc(-c2ccc(OCCCN3CCCN(C(=O)[C@@H](C)NC(=O)c4ccco4)CC3)cc2F)no1	33	1.7
CCCCC(=O)N[C@H](C)C(=O)N1CCCN(CCCOc2ccc(-c3noc(CC4CCCC4)n3)c(F)c2)CC1	18	1.4
CCC(CC)c1nc(-c2ccc(OCCCN3CCCN(C(=O)[C@@H](C)NC(=O)c4ccco4)CC3)cc2F)no1	34	2.3
CCC(=O)N[C@H](C)C(=O)N1CCCN(CCCOc2ccc(-c3noc(CC4CCCC4)n3)c(F)c2)CC1	26	1.1
C[C@@H](NC(=O)CCN1CCOCC1)C(=O)N1CCN(CCCOc2ccc(-c3noc(-c4ccccc4)n3)c(F)c2)CC1	88	–
C[C@@H](NC(=O)C(C)(C)C)C(=O)N1CCN(CCCOc2ccc(-c3noc(CC4CCCC4)n3)c(F)c2)CC1	130	7
C[C@@H](NC(=O)CC(C)(C)C)C(=O)N1CCCN(CCCOc2ccc(-c3noc(CC4CCCC4)n3)c(F)c2)CC1	74	4.9
CCOCC(=O)N[C@H](C)C(=O)N1CCN(CCCOc2ccc(-c3noc(-c4ccccc4)n3)c(F)c2)CC1	100	10
CC(C)CCC(=O)N[C@H](C)C(=O)N1CCN(CCCOc2ccc(-c3noc(-c4ccccc4)n3)c(F)c2)CC1	68	14

SMILES	Ki (Histamine H3 receptor [1]) [nM]	Ki (Histamine H3 receptor [2]) [nM]
C[C@@H](NC(=O)c1ccco1)C(=O)N1CCCN(CCCOc2ccc(-c3noc(-c4ccsc4)n3)c(F)c2)CC1	49	2.6
CC(C)OCc1nc(-c2ccc(OCCCN3CCCN(C(=O)[C@@H](C)NC(=O)c4ccco4)CC3)cc2F)no1	110	3.7
CC(=O)N[C@H](C)C(=O)N1CCCN(CCCOc2ccc(-c3noc(CC4CCCC4)n3)c(F)c2)CC1	40	2
C[C@H](NC(=O)OC(C)(C)C)c1nc(-c2ccc(OCCCN3CCCN(C(=O)[C@@H](C)NC(=O)c4ccco4)CC3)cc2F)no1	140	8.2
CCc1nc(-c2ccc(OCCCN3CCCN(C(=O)[C@@H](C)NC(=O)c4ccco4)CC3)cc2F)no1	120	–
C[C@@H](NC(=O)c1ccco1)C(=O)N1CCCN(CCCOc2ccc(-c3noc(C4CCCC4)n3)c(F)c2)CC1	15	0.86
C[C@@H](NC(=O)c1ccc(C#N)cc1)C(=O)N1CCN(CCCOc2ccc(-c3noc(-c4ccccc4)n3)c(F)c2)CC1	20	2.6
C[C@@H](NC(=O)[C@@H]1CCCO1)C(=O)N1CCN(CCCOc2ccc(-c3noc(-c4ccccc4)n3)c(F)c2)CC1	80	–
C[C@@H](NC(=O)c1ccco1)C(=O)N1CCCN(CCCOc2ccc(-c3noc(-c4cncs4)n3)c(F)c2)CC1	240	6.2
C[C@@H](NC(=O)c1ccco1)C(=O)N1CCCN(CCCOc2ccc(-c3noc(-c4ccoc4)n3)c(F)c2)CC1	85	1.7
C[C@@H](NC(=O)c1ccco1)C(=O)N1CCN(CCCOc2ccc(-c3noc(C4CC4)n3)c(F)c2)CC1	64	1.1
CC(C)CCC(=O)N[C@H](C)C(=O)N1CCN(CCCOc2ccc(-c3noc(CC4CCCC4)n3)c(F)c2)CC1	98	6.1
CCCCCC(=O)c1ccc(OCCCN2CCN(C(=O)OCC)CC2)cc1	–	1
C[C@@H](N)C(=O)N1CCCN(CCCOc2ccc(-c3noc(C4CC4)n3)c(F)c2)CC1	240	3
C[C@@H](NC(=O)c1ccco1)C(=O)N1CCCN(CCCOc2ccc(-c3noc(CCc4ccccc4)n3)c(F)c2)CC1	7.5	0.94
CCCCC(=O)N[C@H](C)C(=O)N1CCN(CCCOc2ccc(-c3noc(CC4CCCC4)n3)c(F)c2)CC1	79	2.6
C[C@@H](N)C(=O)N1CCN(CCCOc2ccc(-c3noc(C4CC4)n3)c(F)c2)CC1	560	3.1
C[C@@H](NC(=O)CCN1CCOCC1)C(=O)N1CCCN(CCCOc2ccc(-c3noc(CC4CCCC4)n3)c(F)c2)CC1	13	0.58
C[C@@H](NC(=O)c1ccno1)C(=O)N1CCN(CCCOc2ccc(-c3noc(-c4ccccc4)n3)c(F)c2)CC1	86	–
CC(C)CC(=O)N[C@H](C)C(=O)N1CCN(CCCOc2ccc(-c3noc(-c4ccccc4)n3)c(F)c2)CC1	56	–
C[C@@H](NC(=O)c1cccnc1)C(=O)N1CCN(CCCOc2ccc(-c3noc(-c4ccccc4)n3)c(F)c2)CC1	27	–
C[C@@H](NC(=O)c1ccco1)C(=O)N1CCN(CCCOc2ccc(-c3noc(-c4ccccc4)n3)c(F)c2)CC1 (stereo in doubt; 13p)	43	–

Continued, values first:

Ki (Histamine H3 receptor [1]) [nM]	Ki (Histamine H3 receptor [2]) [nM]	SMILES
18	6.2	C[C@@H](NC(=O)c1ccc(Br)cc1)C(=O)N1CCN(CCCOc2ccc(-c3noc(CC4CCCC4)n3)c(F)c2)CC1
54	7	COc1ccccc1C(=O)N[C@H](C)C(=O)N1CCN(CCCOc2ccc(-c3noc(CC4CCCC4)n3)c(F)c2)CC1
24	2.5	COc1ccc(C(=O)N[C@H](C)C(=O)N2CCN(CCCOc3ccc(-c4noc(CC5CCCC5)n4)c(F)c3)CC2)cc1OC
20	1.7	C[C@@H](NC(=O)c1cccnc1)C(=O)N1CCN(CCCOc2ccc(-c3noc(CC4CCCC4)n3)c(F)c2)CC1
31	4.7	Cc1cccc(C(=O)N[C@H](C)C(=O)N2CCN(CCCOc3ccc(-c4noc(CC5CCCC5)n4)c(F)c3)CC2)c1
31	5.2	C[C@@H](NC(=O)c1ccc(Cl)cc1)C(=O)N1CCCN(CCCOc2ccc(-c3noc(CC4CCCC4)n3)c(F)c2)CC1
17	1.5	C[C@@H](NC(=O)c1ccc(F)cc1)C(=O)N1CCN(CCCOc2ccc(-c3noc(CC4CCCC4)n3)c(F)c2)CC1
65	24	C[C@@H](NC(=O)c1cccc(OC(F)(F)F)c1)C(=O)N1CCN(CCCOc2ccc(-c3noc(CC4CCCC4)n3)c(F)c2)CC1
8.6	–	C[C@@H](NC(=O)c1ccccc1Cl)C(=O)N1CCN(CCCOc2ccc(-c3noc(CC4CCCC4)n3)c(F)c2)CC1
16	1.3	C[C@@H](NC(=O)c1ccc(O)cc1)C(=O)N1CCN(CCCOc2ccc(-c3noc(CC4CCCC4)n3)c(F)c2)CC1
11	–	COc1ccc(C(=O)N[C@H](C)C(=O)N2CCN(CCCOc3ccc(-c4noc(CC5CCCC5)n4)c(F)c3)CC2)cc1
13	2.4	Cc1ccccc1C(=O)N[C@H](C)C(=O)N1CCN(CCCOc2ccc(-c3noc(CC4CCCC4)n3)c(F)c2)CC1
34	3.6	COc1cccc(C(=O)N[C@H](C)C(=O)N2CCN(CCCOc3ccc(-c4noc(CC5CCCC5)n4)c(F)c3)CC2)c1
36	6.7	C[C@@H](NC(=O)c1cccc(Cl)c1)C(=O)N1CCN(CCCOc2ccc(-c3noc(CC4CCCC4)n3)c(F)c2)CC1
9.8	1.1	COc1ccc(C(=O)N[C@H](C)C(=O)N2CCCN(CCCOc3ccc(-c4noc(CC5CCCC5)n4)c(F)c3)CC2)cc1
9.5	1.2	C[C@@H](NC(=O)c1ccc(C#N)cc1)C(=O)N1CCN(CCCOc2ccc(-c3noc(CC4CCCC4)n3)c(F)c2)CC1
47	2.6	C[C@@H](NC(=O)c1cccc(N(C)C)c1)C(=O)N1CCN(CCCOc2ccc(-c3noc(CC4CCCC4)n3)c(F)c2)CC1
16	2.9	C[C@@H](NC(=O)c1ccccc1F)C(=O)N1CCN(CCCOc2ccc(-c3noc(CC4CCCC4)n3)c(F)c2)CC1
200	8.9	CC(=O)N[C@H](C)C(=O)N1CCN(CCCOc2ccc(-c3noc(CC4CCCC4)n3)c(F)c2)CC1
17	1.4	Cc1ccc(C(=O)N[C@H](C)C(=O)N2CCCN(CCCOc3ccc(-c4noc(CC5CCCC5)n4)c(F)c3)CC2)cc1
9.3	0.83	C[C@@H](NC(=O)c1ccco1)C(=O)N1CCCN(CCCOc2ccc(-c3noc(CC4CCCC4)n3)c(F)c2)CC1
12	–	C[C@@H](NC(=O)c1ccc(C#N)cc1)C(=O)N1CCCN(CCCOc2ccc(-c3noc(CC4CCCC4)n3)c(F)c2)CC1
